Measurements reported in patent publication US9751847B2, “Methods and compositions related to neuroactive thiazoline compounds” (University of Utah Research Foundation, priority 2010, dated 2017).
“Also recorded” adds a separate entry of the source. Like-named read-outs stand apart in the source and are kept apart here.

What was measured:
[1] = target: DAT (Homo sapiens, UniProt Q01959); assay: PDSP radioligand displacement receptor assay, DAT; format: binding; settings: for inhibition at 10 µM: radioligand displacement, primary assay, 10 μM compound; for Ki: secondary binding assay, test compound 1 to 10,000 nM
Method: (§1) Receptor affinity assays were carried out according to methods as described at http://pdsp.med.unc.edu/ (accessed on Oct. 13, 2010).
(§2) Initial hits were obtained in radioligand displacement assays. […] Representative activity is highlighted in the table below showing in radioligand displacement activity at 10 μM of the in dicated compound. Ki was determined as indicated.

[2] = tested on: Ca2+ Channel; assay: PDSP radioligand displacement receptor assay, Ca2+ channel; format: binding; settings: for inhibition (10 μM) Ca2+ Channel: radioligand displacement, primary assay, 10 μM compound; for Ki: secondary binding assay, test compound 1 to 10,000 nM
Method: as §1, §2

[3] = target: histamine H1 receptor (Homo sapiens, UniProt P35367); assay: PDSP radioligand displacement receptor assay, H1; format: binding; settings: for inhibition at 10 µM: radioligand displacement, primary assay, 10 μM compound; for Ki: secondary binding assay, test compound 1 to 10,000 nM
Method: as §1, §2

[4] = target: kappa opioid receptor (Homo sapiens, UniProt P41145); assay: PDSP radioligand displacement receptor assay, KOR; format: binding; settings: for inhibition at 10 µM: radioligand displacement, primary assay, 10 μM compound; for Ki: secondary binding assay, test compound 1 to 10,000 nM
Method: as §1, §2

[5] = tested on: dorsal root ganglia (DRG) cells; assay: Dorsal root ganglion (DRG) assay, Fura-2 intracellular calcium with 25 mM KCl; format: cell-based, mice; settings: pure compound 20 μg/mL, co-applied with 25 mM KCl, mouse DRG cells
Method: For details of the isolation and culture of dorsal root ganglion neurons see Light et al. Briefly, dorsal root ganglia (DRG) cells from cervical and lumbar regions were obtained from mice and used in an assay with bacterial culture extracts and pure compounds. DRG cells were suspended in medium with additives and loaded with Fura-2 AM (Molecular Probes), a fluorescent dye used to measure intracellular calcium levels. Experiments were performed at room temperature (20 to 25° C.) in a 24-well plate format using fluorescence microscopy. Individual cells were treated as single samples, so that the individual responses of diverse neuron subtypes from the DRG could be examined. After baseline measurements, the cells were treated with 25 mM KCl solution and then washed. After return to baseline, bacterial extracts, fractions, or pure compounds were applied. This solution was then later replaced with 25 mM KCl solution. The use of KCl permitted observation of direct, modulatory, as well as inhibitory and excitatory effects of the samples assayed.
Representative data for assay results obtained with a sample of crude extract (100 μg/mL; FIG. 33), as well as compounds 1, 2, and 8 (20 μg/mL; respectively, […]). The y-axis indicates the ratio between 340 nm and 380 nm fluorescence. A higher value indicates more Ca^2+ in the cell. The x-axis indicates time. Each line indicates an individual DRG cell followed over the experimental time course. In each experiment, KCl is applied either once or twice, the compounds or extracts are incubated with cells, then the compound is co-applied with KCl.

[6] = target: 5HT-2B receptor (Homo sapiens, UniProt P41595); assay: PDSP radioligand displacement receptor assay, 5HT2B; format: binding; settings: for inhibition at 10 µM: primary assay, 10 μM compound; for Ki: secondary binding assay
Method: as §1, §2

[7] = tested on: other serotonin receptors; assay: PDSP primary assay, other serotonin receptors; format: binding; settings: 5HT-2B versus other serotonin receptors
Method: as §1, §2

[8] = test compound 1 to 10,000 nM, read-out: Ki (nM) 5HT2B

Sequence of DAT (Q01959 whole entry, species assumed): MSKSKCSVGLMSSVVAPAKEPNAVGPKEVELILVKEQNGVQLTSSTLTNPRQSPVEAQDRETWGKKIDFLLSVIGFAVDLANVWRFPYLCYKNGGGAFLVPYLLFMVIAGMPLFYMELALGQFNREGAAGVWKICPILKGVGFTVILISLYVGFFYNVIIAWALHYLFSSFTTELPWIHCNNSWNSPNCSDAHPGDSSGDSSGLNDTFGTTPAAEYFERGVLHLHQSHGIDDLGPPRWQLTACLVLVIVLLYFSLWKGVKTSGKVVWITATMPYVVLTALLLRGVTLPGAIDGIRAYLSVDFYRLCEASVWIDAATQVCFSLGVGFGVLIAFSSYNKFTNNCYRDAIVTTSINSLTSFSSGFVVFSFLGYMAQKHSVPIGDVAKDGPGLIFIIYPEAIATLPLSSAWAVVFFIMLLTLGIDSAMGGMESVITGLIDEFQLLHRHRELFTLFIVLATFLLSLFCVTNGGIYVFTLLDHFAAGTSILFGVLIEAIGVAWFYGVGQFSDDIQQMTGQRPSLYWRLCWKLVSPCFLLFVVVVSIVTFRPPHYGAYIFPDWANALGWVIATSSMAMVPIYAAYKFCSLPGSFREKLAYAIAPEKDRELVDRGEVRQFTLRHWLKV
Sequence of 5HT-2B receptor (P41595 whole entry): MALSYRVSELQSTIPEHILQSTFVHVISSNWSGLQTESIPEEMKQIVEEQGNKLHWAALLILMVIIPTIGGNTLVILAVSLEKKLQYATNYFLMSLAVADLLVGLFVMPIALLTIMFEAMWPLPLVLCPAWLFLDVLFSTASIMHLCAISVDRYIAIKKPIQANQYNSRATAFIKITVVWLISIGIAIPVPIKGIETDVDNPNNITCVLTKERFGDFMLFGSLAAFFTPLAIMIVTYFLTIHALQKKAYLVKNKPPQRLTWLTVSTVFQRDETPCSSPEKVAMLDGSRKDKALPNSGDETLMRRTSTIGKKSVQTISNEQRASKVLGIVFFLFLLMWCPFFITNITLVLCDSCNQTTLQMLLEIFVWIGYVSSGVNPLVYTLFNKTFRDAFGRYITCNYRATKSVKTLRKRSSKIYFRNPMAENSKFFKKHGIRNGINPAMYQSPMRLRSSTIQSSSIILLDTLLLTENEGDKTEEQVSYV
Sequence of histamine H1 receptor (P35367 whole entry, species assumed): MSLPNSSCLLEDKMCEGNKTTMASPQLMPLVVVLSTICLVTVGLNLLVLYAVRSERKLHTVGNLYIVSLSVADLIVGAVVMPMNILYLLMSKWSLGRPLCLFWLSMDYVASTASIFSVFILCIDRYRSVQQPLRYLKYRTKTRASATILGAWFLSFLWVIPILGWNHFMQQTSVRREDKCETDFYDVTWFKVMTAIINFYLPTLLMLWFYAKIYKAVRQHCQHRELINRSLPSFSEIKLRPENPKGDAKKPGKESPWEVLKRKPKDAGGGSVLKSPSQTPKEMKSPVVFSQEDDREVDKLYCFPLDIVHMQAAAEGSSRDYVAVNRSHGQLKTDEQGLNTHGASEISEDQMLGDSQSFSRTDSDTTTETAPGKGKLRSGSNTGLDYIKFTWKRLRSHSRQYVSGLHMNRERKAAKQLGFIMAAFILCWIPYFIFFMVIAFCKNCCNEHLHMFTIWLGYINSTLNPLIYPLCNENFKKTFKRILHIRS
Sequence of kappa opioid receptor (P41145 whole entry): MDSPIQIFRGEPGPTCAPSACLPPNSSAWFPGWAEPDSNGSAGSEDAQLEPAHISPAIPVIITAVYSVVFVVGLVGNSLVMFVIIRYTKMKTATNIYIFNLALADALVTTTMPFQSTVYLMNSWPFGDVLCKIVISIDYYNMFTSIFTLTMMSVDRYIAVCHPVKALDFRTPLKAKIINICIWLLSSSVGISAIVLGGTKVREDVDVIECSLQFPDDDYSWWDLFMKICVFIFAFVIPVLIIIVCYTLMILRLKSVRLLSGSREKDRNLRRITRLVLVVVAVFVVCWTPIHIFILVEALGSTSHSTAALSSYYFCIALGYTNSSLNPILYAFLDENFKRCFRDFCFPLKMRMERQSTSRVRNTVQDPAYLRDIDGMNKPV

| Compound | inhibition at 10 µM [1] [%] | inhibition (10 μM) Ca2+ Channel [2] [%] | inhibition at 10 µM [3] [%] | inhibition at 10 µM [4] [%] | Ki [4] [nM] | response in DRG assay (Ca2+ influx) [5] | inhibition at 10 µM ([6]; radioligand displacement) [%] | Ki [6, 8] [nM] | selectivity for the 5HT-2B receptor versus the other serotonin receptors [7] [fold] | Ki [2] [nM] | Ki [1] [nM] | Ki [3] [nM] | Ki ([6]; radioligand displacement, read-out: Ki (nM) vs 5-HT2B) [nM] |
| --- | --- | --- | --- | --- | --- | --- | --- | --- | --- | --- | --- | --- | --- |
| OC[C@@H]1CSC(c2ccccc2O)=N1 [Compound 1, (R)-2-(4-(hydroxymethyl)-4,5-dihydrothiazol-2-yl)phenol] | -1.5 | −0.7 | 39 | 57.2 | > 10000 | excitatory response; also recorded: increased Ca^2+ influx | 79.2 | 1360 |  |  |  |  |  |
| C[C@@H]1SC(c2ccccc2O)=N[C@@H]1CO [Compound 2, 2-((4R,5S)-4-(hydroxymethyl)-5-methyl-4,5-dihydrothiazol-2-yl)phenol] | 6 |  | 45.8 | 60.8 | > 10000 | inhibitory response; also recorded: decreased Ca^2+ influx | 89.7 | 505 | ≥ 20 | 6600 |  |  |  |
| Cc1sc(-c2ccccc2O)nc1C=O [Compound 5, 2-(2-hydroxyphenyl)-5-methylthiazole-4-carbaldehyde] | 88.3 | −18.9 | 42.5 | 37.1 |  |  | 77 | 1540 |  |  | 5180 |  |  |
| C[C@@H]1SC(c2ccccc2O)=N[C@H]1[C@@H]1SC[C@](C)(C(=O)O)N1C [Compound 9, (2S,4S)-2-((4R,5S)-2-(2-hydroxyphenyl)-5-methyl-4,5-dihydrothiazol-4-yl)-3,4-dimethylthiazolidine-4-carboxylic acid] | 83.8 | 0.1 | 16.3 | 41.4 |  |  | 68 | 3920 |  |  | > 10000 |  |  |
| NC(=O)c1csc(-c2ccccc2O)n1 [Compound 7, 2-(2-hydroxyphenyl)thiazole-4-carboxamide] | 2.4 | 29.6 | 88 | 31.8 |  |  | 84.9 |  |  |  |  | 517 ± 28 | 1030 ± 76 |
| C[C@@H]1SC(c2ccccc2O)=N[C@H]1[C@H]1SC[C@](C)(C(=O)O)N1C [Compound 10, (2R,4S)-2-((4R,5S)-2-(2-hydroxyphenyl)-5-methyl-4,5-dihydrothiazol-4-yl)-3,4-dimethylthiazolidine-4-carboxylic acid] | -0.3 | 110.4 | -3 | 31.9 |  |  | 40.3 | 4700 |  | 9750 |  |  |  |
| NC(=O)C1CSC(c2ccccc2O)=N1 (stereo not drawn) [Compound 8, 2-(2-hydroxyphenyl)-4,5-dihydrothiazole-4-carboxamide] | 13.8 | −3.4 | 71.6 | 50.4 | 3710 | excitatory response; also recorded: increased Ca^2+ influx | 65.8 | 1260 |  |  |  | 678 ± 46 |  |
